Columns and labels:
Assay type in all cases: cell-based
[1] = test system: bovine articular cartilage explants; assay: General MMP activity in culture medium of cytokine-stimulated bovine cartilage explants (fluorogenic substrate); settings: stimulated control 23
Protocol: (§1) Outcome parameters included (i) CTX-II in the culture medium as a measure of collagen degradation, (ii) GAG in the culture medium and cartilage explant as a measure of proteoglycan degradation, (iii) prostaglandin E2 (PGE2) measured by ELISA in the culture medium as a measure of inflammation, and (iv) general MMP activity in the culture medium. Not all outcome parameters were determined for each of the culture conditions.
The MMP activity was measured as MMP activity per mg cartilage.
(§2) Full thickness cartilage was obtained from the metacarpophalangeal joints of approximately 6 months old calves (from a local slaughterhouse). Cartilage punches (4 mm) were taken from the cartilage and placed in culture dishes with culture medium (DMEM+FCS, penicillin, streptomycin and ascorbic acid). Cartilage explants were weighed and explants between about 5 and about 15 mg were divided into a 96-well culture plate with 1 explant per well and 200 μL culture medium. Cartilage degradation was induced by addition of TNFα, IL-1α, and OSM at 10 ng/mL each to the culture medium to induce cartilage degradation. Test agents were then added at different concentrations. During three weeks of culture, the culture medium and the test compounds were refreshed once weekly. In addition fresh calcitonin was added twice weekly to the cartilage explants. Culture medium and cartilage explants were stored at −20° C. until analysis. Each culture condition was cultured in four-fold and the entire experiment was performed on cartilage from three different paws. The different culture conditions are listed below in Table 3.

[2] = test system: bovine articular cartilage explants; assay: Collagen (CTX-II) release from cytokine-stimulated bovine cartilage explants (CTX-II ELISA); settings: for CTX-II release: stimulated control 135; for highest ineffective concentration, Collagen Release: TNFa/IL-1a/OSM 10 ng/ml each, 3 week culture; for effect on collagen release (in words): Example 1, concentrations of Table 1
Protocol: as §2, with “medium.” for “medium to induce cartilage degradation.”, “1.” for “3.”
as §1
Collagen release was measured as CTX-II release per mg cartilage. Collagen was measured in the pooled medium using the CTXII ELISA assay (Pre-clinical Cartilaps®, Nordic Bioscience).
as §2

[3] = test system: bovine articular cartilage explants; assay: Proteoglycan (GAG) release from cytokine-stimulated bovine cartilage explants (Blyscan assay); settings: for normalized GAG (proteoglycan) release: stimulated control = 100%; for highest ineffective concentration, Proteoglycan release: TNFa/IL-1a/OSM 10 ng/ml each, 3 week culture; for effect on proteoglycan release (in words): Example 1, concentrations of Table 1
Protocol: as §2, with “medium.” for “medium to induce cartilage degradation.”, “1.” for “3.”
as §1
The proteoglycan release is measured as GAG release per mg cartilage. Proteoglycan (GAG) content was determined in the pooled medium and explants using the Blyscan® colorimetric assay (Biocolor, Belfast, UK). This value is normalized against the control condition of each donor to correct for donor variation. The basal release of unstimulated cartilage is 36% (p<0.05) when the stimulated (IL-1a, TNFα and OSM) control is set to 100%.
as §2

[4] = test system: bovine articular cartilage explants; assay: PGE2 release from cytokine-stimulated bovine cartilage explants (ELISA); settings: for highest ineffective concentration, PGE2 release: TNFa/IL-1a/OSM 10 ng/ml each, 3 week culture; for normalized PGE2 release: stimulated control = 100%
Protocol: as §2, with “medium.” for “medium to induce cartilage degradation.”, “1.” for “3.”
as §1
The prostaglandin E2 release was measured as PGE2 release per mg cartilage. PGE2 was determined in the pooled medium using a PGE2 ELISA from R&D Systems. This value was normalized against the control condition of each donor to correct for donor variation. The basal release of unstimulated cartilage is 11% (p<0.0 1) when the stimulated (IL-1a, TNFα and OSM) control is set to 100%.
as §2

CNC(=O)[C@H](Cc1ccccc1)NC(=O)[C@H](CC(C)C)[C@H](CSc1cccs1)C(=O)NO [BB-94]
MMP activity ([1]; compound alone at 10 nM): 13 RFU/sec per mg cartilage
MMP activity ([1]; compound alone at 100 nM): 4 RFU/sec per mg cartilage
CTX-II release ([2]; compound alone at 10 nM): 137 ng/mg cartilage
CTX-II release ([2]; compound alone at 100 nM): 27 ng/mg cartilage
normalized GAG (proteoglycan) release ([3]; compound alone at 10 nM): 83%
normalized GAG (proteoglycan) release ([3]; compound alone at 100 nM): 80%

Cc1ccc(-c2cc(C(F)(F)F)nn2-c2ccc(S(N)(=O)=O)cc2)cc1 [Celebrex ® (celecoxib), celecoxib]
highest ineffective concentration, Collagen Release [2]: >10 µM
highest ineffective concentration, PGE2 release [4]: <0.01 µM
highest ineffective concentration, Proteoglycan release [3]: 0.1 to 1 µM

C[C@@H]1C[C@H]2[C@@H]3CCC4=CC(=O)C=C[C@]4(C)[C@@]3(F)[C@@H](O)C[C@]2(C)[C@@]1(O)C(=O)CO [Dexamethasone]
highest ineffective concentration, Collagen Release [2]: <0.01 µM
highest ineffective concentration, PGE2 release [4]: <0.01 µM
highest ineffective concentration, Proteoglycan release [3]: <0.01 µM

C[C@H]1c2cccc(O)c2C(=O)C2=C(O)[C@]3(O)C(=O)C(C(N)=O)=C(O)[C@@H](N(C)C)[C@@H]3[C@@H](O)[C@@H]21 [Doxycycline]
MMP activity ([1]; compound alone at 10 μM): 14 RFU/sec per mg cartilage
highest ineffective concentration, Collagen Release [2]: 10 to 100 µM
CTX-II release ([2]; compound alone at 10 μM): 125 ng/mg cartilage
highest ineffective concentration, PGE2 release [4]: 1 to 10 µM
normalized PGE2 release ([4]; compound alone at 10 μM): 111%
highest ineffective concentration, Proteoglycan release [3]: >100 µM
normalized GAG (proteoglycan) release ([3]; compound alone at 100 μM): 80%

CNC(=O)[C@H](Cc1c[nH]c2ccccc12)NC(=O)[C@@H](CC(=O)NO)CC(C)C [Galardin]
effect on collagen release (in words) [2]: inhibited
highest ineffective concentration, Collagen Release [2]: <0.1 µM
highest ineffective concentration, PGE2 release [4]: >10 µM
effect on proteoglycan release (in words) [3]: slightly inhibited
highest ineffective concentration, Proteoglycan release [3]: 1 to 10 µM
normalized GAG (proteoglycan) release ([3]; compound alone at 10 μM): 72%

Calcitonin
MMP activity ([1]; compound alone at 10 nM): 15 RFU/sec per mg cartilage
highest ineffective concentration, Collagen Release [2]: 0.0003 to 0.001 µM
CTX-II release ([2]; compound alone at 0.5 nM): 133 ng/mg cartilage
highest ineffective concentration, PGE2 release [4]: >0.01 µM
normalized PGE2 release ([4]; compound alone at 10 nM): 117%
highest ineffective concentration, Proteoglycan release [3]: >0.01 µM
normalized GAG (proteoglycan) release ([3]; compound alone at 10 nM): 87%

anakinra [Kineret ® (anakinra)]
effect on collagen release (in words) [2]: inhibited all outcome parameters
effect on PGE2 release (in words) ([4]; Example 1, concentrations of Table 1): inhibited all outcome parameters
highest ineffective concentration, PGE2 release [4]: <0.1 µg/mL
effect on proteoglycan release (in words) [3]: inhibited all outcome parameters
highest ineffective concentration, Proteoglycan release [3]: <0.1 µg/mL

Source: patent publication US9220758B2, “Calcitonin products and therapies for treating inflammatory or degenerative diseases” (UGP Therapeutics, Inc., priority 2010, dated 2015)
